16 molecules from patent US20240083857A1, “2-Methyl-Quinazolines” (Bayer Pharma Aktiengesellschaft, priority 2017, published 2024) can be followed below.

Test [1] addresses human SOS1 (loading of human K-Ras^G12C-GDP with fluorescent GTP-analog) (Homo sapiens, UniProt Q07889). In words: Biochemical assay 3: K-Ras^G12C activation assay by hSOS1 (HTRF). The settings on record: no GTP; for IC50: read-out: Assay 3 (KRAS-Activation by SOS no GTP) activity expressed as IC50; for inhibition at 20 µM: read-out: Assay 3 (KRAS-Activation by SOS no GTP) activity expressed as % inhibition at 20 μM. On the technique in general: In TR-FRET formats the signal depends on donor and acceptor labels being close together.

For test [2], the target named is K-Ras^G12C : hSOS1 interaction (Homo sapiens, UniProt Q07889). In words: Biochemical assay 1: K-Ras^G12C interaction assay with hSOS1 (HTRF). It counts as binding. The settings on record: for IC50: read-out: Assay 1 (KRAS-SOS Interaction) activity expressed as IC50; for inhibition at 20 µM: read-out: Assay 1 (KRAS-SOS Interaction) activity expressed as % inhibition at 20 μM. The method, then: Biochemical assay 1: K-Ras^G12C Interaction Assay with hSOS1
This assay quantifies the equilibrium interaction of human SOS1 with K-Ras^Gl2C. Detection of the interaction is achieved by measuring homogenous time-resolved fluorescence resonance energy transfer (HTRF) from antiGST-Europium (FRET donor) bound to GST-K-Ras^G12C to anti-6His-XL665 bound to His-tagged hSOS1 (FRET-acceptor).
The assay buffer contained 5 mM HEPES pH 7.4 (Applichem), 150 mM NaCl (Sigma), 10 mM EDTA (Promega), 1 mM DTT (Thermofisher), 0.05% BSA Fraction V, pH 7.0, (ICN Biomedicals), 0.0025% (v/v) Igepal (Sigma) and 100 mM KF (FLUKA).
Concentrations of protein batches used were optimized to be within the linear range of the HTRF signal. A Ras working solution was prepared in assay buffer containing typically 10 nM GST-hK-RasG12C and 2 nM antiGST-Eu(K) (Cisbio, France). A SOS working solution was prepared in assay buffer containing typically 20 nM His-hSOS1 and 10 nM anti-6His-XL665 (Cisbio, France). An inhibitor control solution was prepared in assay buffer containing 10 nM anti-6His-XL665 without hSOS1.
(§1) Fifty nl of a 100-fold concentrated solution of the test compound in DMSO were transferred into a black microtiter test plate (384 or 1536, Greiner Bio-One, Germany). For this, either a Hummingbird liquid handler (Digilab, MA, USA) or an Echo acoustic system (Labcyte, CA, USA) was used.
All steps of the assay were performed at 20° C. A volume of 2.5 μl of the Ras working solution was added to all wells of the test plate using a Multidrop dispenser (Thermo Labsystems). After 2 min preincubation, 2.5 μl of the SOS working solution were added to all wells except for those wells at the side of the test plate that were subsequently filled with 2.5 μl of the inhibitor control solution. After 60 min incubation the fluorescence was measured with a Pherastar (BMG, Germany) using the HTRF module (excitation 337 nm, emission 1: 620 nm, emission 2: 665 nm).
(§2) IC50 values were calculated by 4-Parameter fitting using a commercial software package (Genedata Screener, Switzerland).

Test [3] deals with human SOS1 (nucleotide exchange of K-Ras^G12C) (Homo sapiens, UniProt Q07889). In words: Biochemical assay 2: K-Ras^G12C activation assay by hSOS1 at high GTP concentration (HTRF). The settings on record: high GTP; for IC50: read-out: Assay 2 (KRAS-Activation by SOS high GTP) activity expressed as IC50; for inhibition at 20 µM: read-out: Assay 2 (KRAS-Activation by SOS high GTP) activity expressed as % inhibition at 20 μM.
Source text: Biochemical Assay 2: K-Ras^G12C Activation Assay by hSOS1 at High GTP Concentration
This assay quantifies human SOS1-mediated nucleotide exchange of K-Ras^G12C preloaded with a fluorescent […] and in presence of an excess of free GTP. Loaded hK-Ras^G12C generates a high HTRF-signal by energy transfer from antiGST-Terbium (FRET donor) bound to K-Ras to the loaded fluorescent GDP analog (FRET-acceptor). SOS1 activity exchanges the fluorescent GDP for non-fluorescent GTP and therefore leads to a reduction of the HTRF signal.
The fluorescent GDP-analog EDA-GDP-Dy647P1 (2′/3′-O-(2-Aminoethyl-carbamoyl)-guanosine-5′-diphosphate labelled with Dy647P1 (Dyomics GmbH, Germany)) was synthesized by Jena Biosciences GmbH (Germany) and supplied as a 1 mM aqueous solution.
Concentrations of protein batches used were optimized to be within the linear range of the HTRF signal.
Preparation of GST-tagged hK-Ras^Gl2C loaded with fluorescent nucleotide was performed as follows: incubation of 11.5 μM hK-Ras^Gl2C with 5-fold excess GDP-Dy647 nucleotide (54 μM) in 500 μl NLS-buffer (RAS activation Kit Jena Bioscience, Kat. #PR-950) for 10 min at 37° C. Addition of 20 μl 1 M MgCl2 (Sigma) to final 40 mM and store on ice. Purification into buffer (10 mM HEPES pH 7.4 (Applichem), 150 mM NaCl (Sigma), 5 mM MgCl2 (Sigma)) by use of a PD-Minitrap desalting column (GE Healthcare). Concentration of 1 ml purified hK-Ras-GDP-Dy647 is approx. 4-5 μM.
The assay buffer contained 10 mM HEPES pH 7.4 (Applichem), 150 mM NaCl (Sigma), 5 mM MgCl2 (Sigma), 1 mM DTT (Thermofisher), 0.05% BSA Fraction V, pH 7.0, (ICN Biomedicals), 0.0025% (v/v) Igepal (Sigma).
A Ras working solution was prepared in assay buffer containing typically 80 nM loaded GST-hK-RasG12C-EDA-GDP-Dy647P1 and 2 nM antiGST-Tb (Cisbio, France). A hSOS1 working solution was prepared in assay buffer containing typically 8 nM His-hSOS1 and 100 μM GTP (Jena Bioscience, Germany). An inhibitor control solution was prepared in assay buffer containing the same concentration of […].
as §1
All steps of the assay were performed at 20° C. A volume of 2.5 μl of the Ras working solution was added to all wells of the test plate using a Multidrop dispenser (Thermo Labsystems). After 2 min preincubation, 2.5 μl of the hSOS1 working solution were added to all wells except for those wells at the side of the test plate that were subsequently filled with 2.5 μl of the inhibitor control solution. After 20 min incubation the fluorescence was measured with a Pherastar (BMG, Germany) using the HTRF module (excitation 337 nm, emission 1: 620 nm, emission 2: 665 nm).
as §2

On to `COc1cc2nc(C)nc(N[C@@H](C)c3ccc(-c4cccc5cnccc45)s3)c2cc1OC` (racemic) [Example 45, N-{1-[5-(isoquinolin-5-yl)thiophen-2-yl]ethyl}-6,7-dimethoxy-2-methylquinazolin-4-amine], for which the IC50 (in general, the concentration that inhibits the measured activity by half) was determined as 1100 nM in test [1], 1510 nM in test [2] and 2170 nM in test [3].
For `COc1cc2nc(C)nc(N[C@H](C)c3cccc(-c4cc(Cl)cc(Cl)c4)c3)c2cc1OC` [Example 124, N-[{1R)-1-(3′,5′-dichlorobiphenyl-3-yl)ethyl]-6,7-dimethoxy-2-methylquinazolin-4-amine], the inhibition (usually the relative decrease from the control value, in per cent) at 20 µM in test [1] worked out at 37%. The IC50 came to 18300 nM in test [2] and 9300 nM in test [3].
Regarding `COc1cc2nc(C)nc(N[C@H](C)c3cccc(-c4cc(N)ccc4C)c3)c2cc1OC` [Example 36, N-[(1R)-1-(5′-amino-2′-methylbiphenyl-3-yl)ethyl]-6,7-dimethoxy-2-methylquinazolin-4-amine], the IC50 in test [1] was 696 nM; in test [2], 542 nM; in test [3] it was 1000 nM.
In the case of `COc1cc2nc(C)nc(N[C@@H](C)c3ccc(-c4cccc(N5CCOCC5)c4)s3)c2cc1OC` (stereo in doubt) [Example 44, 6,7-dimethoxy-2-methyl-N-[1-{5-[3-(morpholin-4-yl)phenyl]thiophen-2-yl}ethyl]quinazolin-4-amine], the values for the inhibition at 20 µM in test [1], in test [2] and in test [3] were 25%, 55% and 47%, respectively.
On to `C/C=C/c1ccc([C@H](C)Nc2nc(C)nc3cc(OC)c(OC)cc23)s1` (racemic) [Example 177, 6,7-dimethoxy-2-methyl-N-[1-{5-[(1E)-prop-1-en-1-yl]thiophen-2-yl}ethyl]quinazolin-4-amine], for which the inhibition at 20 µM in test [1] worked out at 49%. The half-inhibitory concentration (IC50) in test [2] was found to be 5770 nM; in test [3] it was 6700 nM.
`COc1cc2nc(C)nc(N[C@H](C)c3cccc(C4CC4(C)C)c3)c2cc1OC` (stereo partly drawn) [Example 58, N-{(1R)-1-[3-(2,2-dimethylcyclopropyl)phenyl]ethyl}-6,7-dimethoxy-2-methylquinazolin-4-amine]: the IC50 in test [1] turned out to be 3110 nM; in test [2], 1770 nM; in test [3] it was 1640 nM.
The corresponding values for `COc1cc2nc(C)nc(N[C@@H](C)c3ccc(-c4ccncc4C)s3)c2cc1OC` (racemic) [Example 53, 6,7-dimethoxy-2-methyl-N-{1-[5-(3-methylpyridin-4-yl)thiophen-2-yl]ethyl}quinazolin-4-amine] are 1080 nM, 669 nM and 1280 nM.
For `COc1cc2nc(C)nc(N[C@H](C)c3cccc(-c4ccc5c(ccn5C)c4)c3)c2cc1OC` [Example 105, 6,7-dimethoxy-2-methyl-N-{(1R)-1-[3-{1-methyl-1H-indol-5-yl)phenyl]ethyl}quinazolin-4-amine], in that order: 2770 nM, 2400 nM and 1390 nM.
Consider `COc1cc2nc(C)nc(NC(C)c3cccs3)c2cc1OC` (stereo not drawn) [Example 347, 6,7-dimethoxy-2-methyl-N-[1-(thiophen-2-yl)ethyl]quinazolin-4-amine], for which the inhibition at 20 µM in test [1] stood at 48%. For the same molecule, the values for the IC50 in test [2] and in test [3] were 15600 nM and 9050 nM, respectively.
Consider `COc1cc2nc(C)nc(N[C@@H](C)c3ccc(-c4cc(Cl)cc(Cl)c4)s3)c2cc1OC` (stereo in doubt) [Example 122, N-{1-[5-(3,5-dichlorophenyl)thiophen-2-yl]ethyl}-6,7-dimethoxy-2-methylquinazolin-4-amine], for which the inhibition at 20 µM in test [1] was 21%; in test [2] it was 46%; in test [3], 17%.
Regarding `COc1cc2nc(C)nc(N[C@H](C)c3cccc(-c4ccccc4Oc4ccccc4)c3)c2cc1OC` [Example 91, 6,7-dimethoxy-2-methyl-N-[(1R)-1-(2′-phenoxybiphenyl-3-yl)ethyl]quinazolin-4-amine], the results for the inhibition at 20 µM in test [1] and in test [3] were 38% and 36%, respectively. The IC50 in test [2] came to 15000 nM.
For the molecule `CCC/C=C/c1cccc([C@@H](C)Nc2nc(C)nc3cc(OC)c(OC)cc23)c1` [Example 89, 6,7-dimethoxy-2-methyl-N-[(1R)-1-{3-[(1E)-pent-1-en-1-yl]phenyl}ethyl]quinazolin-4-amine], the IC50 was 4260 nM in test [1], 1680 nM in test [2] and 2680 nM in test [3].
The corresponding values for `COc1cc2nc(C)nc(N[C@H](C)c3cccc(C4=CCCC4)c3)c2cc1OC` [Example 117, N-{(1R)-1-[3-(cyclopent-1-en-1-yl)phenyl]ethyl}-6,7-dimethoxy-2-methylquinazolin-4-amine] are 3080 nM, 1650 nM and 1350 nM.
For the molecule `COc1cc2nc(C)nc(N[C@@H](C)c3ccc(-c4cccc(-c5nnc(C)o5)c4)s3)c2cc1OC` (stereo in doubt) [Example 126, 6,7-dimethoxy-2-methyl-N-[1-{5-[3-(5-methyl-1,3,4-oxadiazol-2-yl)phenyl]thiophen-2-yl}ethyl]quinazolin-4-amine], the inhibition at 20 µM in test [1] worked out at 11%; in test [2] it was 52%; in test [3], 31%.
Turning to `COc1cc2nc(C)nc(N[C@H](C)c3cccc(-c4cccc(NS(C)(=O)=O)c4)c3)c2cc1OC` [Example 118, N-(3′-{(1R)-1-[(6,7-dimethoxy-2-methylquinazolin-4-yl)amino]ethyl}biphenyl-3-yl)methanesulfonamide], the IC50 was 774 nM in test [1], 529 nM in test [2] and 481 nM in test [3].
For `COc1cc2nc(C)nc(N[C@H](C)c3cccc(-c4ccc5cc[nH]c5c4)c3)c2cc1OC` [Example 109, N-{(1R)-1-[3-(1H-indol-6-yl)phenyl]ethyl}-6,7-dimethoxy-2-methylquinazolin-4-amine], in that order: 1410 nM, 1000 nM and 392 nM.
